# Data from publication PMC11266932, “Enhanced absorption of prenylated cinnamic acid derivatives from Brazilian green propolis by turmeric in humans and rats” (Food Science & Nutrition, 2024).
# Where two headings read alike, the source gives them in different places.
# Legend:
# [1] = Bidirectional transport assay across parent MDCK II cell monolayer; format: in vitro ADME, canine; conditions: dog; for efflux ratio at 120 min, 10 μM: MDCK, pH 7.4, 10 μM, Papp B to A / Papp A to B, read-out: Flux ratio (MDCK II) (efflux ratio, ER); for Papp A→B at 120 min, 10 μM / Papp B→A at 120 min, 10 μM: mean ± SE, n = 2
# Description: (§1) The Madin‐Darby canine kidney (MDCK II) cell line and MDCK II cells overexpressing multidrug resistance 1 (MDR1) or breast cancer resistance protein (BCRP) were purchased from the Netherlands Cancer Institute (Amsterdam, Netherlands) and SOLVO Biotechnology (Szeged, Hungary), respectively. The cell lines were routinely cultured in Dulbecco's modified Eagle's medium (DMEM) containing 10% fetal bovine serum and 1% penicillin/streptomycin at 37°C in 5% CO2. All cells were seeded in a feeder tray at a density of 3–6 × 10^4 cells/well and grown for 3–4 days. On the day of the transport study, cell monolayers were washed with Hanks' balanced salt solution (HBSS) buffer containing 0.1% BSA (pH 7.4) and incubated at 37°C for 20 min. Artepillin C and drupanin dissolved in DMSO (10 mM) were added to the transport buffer (HBSS containing 10 mM HEPES, 0.2% glucose, 0.1% BSA, pH 7.4) to a final concentration of 10 μM and then loaded into the apical or basolateral chamber. After 120 min of incubation, 150 μL of the aliquots were collected from the donor and receiver chambers and mixed with an equal volume of 50% methanol. After centrifugation at 3000 rpm for 10 min at 4°C, the supernatants were filtered and subjected to LC–MS/MS analysis.
# (§2) The in vitro samples were analyzed using HPLC (LC‐20A, Shimadzu, Kyoto, Japan) with a reversed‐phase column (Inertsil ODS‐3, 2.1 × 33 mm, ID. 3 μm, GL Sciences, Tokyo, Japan) held at 40°C. The mobile solvents used were water with 10 mM ammonium acetate (pH 4.0, A) and methanol (B) pumped at a flow rate of 0.4 mL/min. The following gradient was employed: 10%–90% B (0–0.5 min), 90% B (0.5–2.5 min), and 10% B (2.5–4 min). The eluent was monitored using a triple quadrupole mass spectrometer (API 4000, AB Sciex, Framingham, MA, USA) incorporating an electrospray ion source (ESI) operating in the multiple reaction monitoring mode. The ESI source was operated in negative ionization mode at 600°C with a spray voltage of −4.5 kV. The curtain gas (nitrogen), collision gas (nitrogen), nebulizer gas (whole air), and drying gas (whole air) were set at 40, 5, 50, and 70 psi, respectively. […] Artepillin C and drupanin were diluted in 50% methanol to concentrations of 1.6, 3.2, 8, 40, 200, 1000, and 2000 nM and were used as external standards. Sulfaphenazole (0.2 μM) was used as an internal standard.
# (§3) The apparent permeability coefficients (Papp) for both directions, from the apical side to the basolateral side (A to B) and from the basolateral side to the apical side (B to A) in the cell monolayer, were calculated using the following equation: (1) Papp=dQ/dt/A×C0 where dQ/dt is the permeation rate (nmol/s), A is the membrane area (cm^2), and C0 is the initial concentration of the compound in the donor compartment (nM). The efflux ratios (ER) in the B‐to‐A and A‐to‐B directions were determined using the following equation: (2) ER=PappBtoA/PappAtoB
# MDR1 (P-gp) = molecular target: T1, MDR1 (P-gp) (Homo sapiens, UniProt P08183); assay: Bidirectional transport assay across MDCK II-MDR1 cell monolayer; format: in vitro ADME; conditions: dog, MDCK-MDR1, pH 7.4
# T1 construct: host or cells: MDCK II (Madin-Darby canine kidney) cells overexpressing MDR1
# T1 sequence (P08183 whole entry): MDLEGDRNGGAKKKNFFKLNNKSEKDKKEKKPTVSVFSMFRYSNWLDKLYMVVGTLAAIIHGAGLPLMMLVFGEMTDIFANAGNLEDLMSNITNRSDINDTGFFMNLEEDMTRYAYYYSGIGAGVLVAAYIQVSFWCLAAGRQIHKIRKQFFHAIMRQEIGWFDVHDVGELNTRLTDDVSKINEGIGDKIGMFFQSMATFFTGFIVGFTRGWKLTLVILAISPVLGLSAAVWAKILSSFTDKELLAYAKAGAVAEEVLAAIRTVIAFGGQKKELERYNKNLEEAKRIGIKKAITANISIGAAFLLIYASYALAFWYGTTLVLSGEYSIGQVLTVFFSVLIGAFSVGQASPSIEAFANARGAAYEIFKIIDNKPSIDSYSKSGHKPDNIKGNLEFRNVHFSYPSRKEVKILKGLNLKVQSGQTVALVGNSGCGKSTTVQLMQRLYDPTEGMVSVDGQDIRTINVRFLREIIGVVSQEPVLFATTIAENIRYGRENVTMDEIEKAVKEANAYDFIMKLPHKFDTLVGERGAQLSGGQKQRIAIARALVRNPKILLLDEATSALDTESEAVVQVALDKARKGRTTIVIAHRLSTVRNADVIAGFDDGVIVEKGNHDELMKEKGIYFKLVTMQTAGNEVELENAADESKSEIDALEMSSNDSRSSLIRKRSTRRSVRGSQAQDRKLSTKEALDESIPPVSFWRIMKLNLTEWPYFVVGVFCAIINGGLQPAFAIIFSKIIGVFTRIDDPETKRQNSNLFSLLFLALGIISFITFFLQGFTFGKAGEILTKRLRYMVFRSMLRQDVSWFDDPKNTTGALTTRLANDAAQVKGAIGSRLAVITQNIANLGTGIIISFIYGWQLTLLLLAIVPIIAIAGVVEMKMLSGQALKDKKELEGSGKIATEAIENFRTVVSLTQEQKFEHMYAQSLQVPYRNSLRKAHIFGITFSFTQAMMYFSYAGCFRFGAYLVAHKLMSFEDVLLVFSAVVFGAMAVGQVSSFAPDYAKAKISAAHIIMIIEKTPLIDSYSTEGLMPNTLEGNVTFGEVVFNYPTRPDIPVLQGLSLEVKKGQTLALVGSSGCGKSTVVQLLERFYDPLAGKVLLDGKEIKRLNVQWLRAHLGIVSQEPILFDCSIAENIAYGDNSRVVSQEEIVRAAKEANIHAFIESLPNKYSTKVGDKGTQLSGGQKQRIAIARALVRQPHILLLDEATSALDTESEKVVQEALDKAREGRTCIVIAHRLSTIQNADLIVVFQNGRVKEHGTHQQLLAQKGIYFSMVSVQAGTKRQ
# Description: as §1, §2, §3
# (§4) Net flux ratios were calculated by dividing the ER obtained from MDCK II‐MDR1 (or BCRP) cells by that obtained from the parent MDCK II cells.
# BCRP = molecular target: T2, BCRP (Homo sapiens, UniProt Q9UNQ0); assay: Bidirectional transport assay across MDCK II-BCRP cell monolayer; format: in vitro ADME; conditions: dog, pH 7.4
# T2 construct: host or cells: MDCK II (Madin-Darby canine kidney) cells overexpressing BCRP
# T2 sequence (Q9UNQ0 1-655): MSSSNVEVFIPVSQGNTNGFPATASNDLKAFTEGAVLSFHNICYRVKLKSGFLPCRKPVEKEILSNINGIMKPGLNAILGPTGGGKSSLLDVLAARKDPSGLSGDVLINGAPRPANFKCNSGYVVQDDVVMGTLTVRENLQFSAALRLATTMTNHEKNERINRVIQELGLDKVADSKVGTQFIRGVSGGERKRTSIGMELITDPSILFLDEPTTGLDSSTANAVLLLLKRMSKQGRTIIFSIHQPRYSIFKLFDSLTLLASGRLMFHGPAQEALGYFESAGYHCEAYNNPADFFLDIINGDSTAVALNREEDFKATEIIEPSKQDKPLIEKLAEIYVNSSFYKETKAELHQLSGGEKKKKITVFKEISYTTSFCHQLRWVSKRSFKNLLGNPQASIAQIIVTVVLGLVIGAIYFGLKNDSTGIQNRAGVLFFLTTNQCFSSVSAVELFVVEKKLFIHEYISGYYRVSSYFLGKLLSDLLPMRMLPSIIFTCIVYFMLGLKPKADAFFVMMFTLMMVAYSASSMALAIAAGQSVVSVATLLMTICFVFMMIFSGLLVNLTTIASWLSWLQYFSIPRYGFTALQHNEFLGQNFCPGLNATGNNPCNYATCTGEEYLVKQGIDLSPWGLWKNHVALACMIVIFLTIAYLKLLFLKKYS
# Description: as §1, §2, §3, §4
# MDCK II cell monolayer = assay: Bidirectional transport assay across parent MDCK II cell monolayer; format: in vitro ADME, canine; conditions: 10 μM; for Papp MDCK II A to B / Papp MDCK II B to A: 120 min, mean ± SE, n = 2
# Description: as §1, §2, §3
# [2] = MDCK-MDR1, pH 7.4, parent cells of the MDR1 experiment (Table 2)
# [3] = pH 7.4, parent cells of the BCRP experiment (Table 3)
# [4] = 10 μM, 120 min, mean ± SE, n = 2
# [5] = parent cells of the BCRP experiment (Table 3)
# [6] = parent cells of the MDR1 experiment (Table 2)
"efflux ratio at 120 min, 10 μM ([1]; Table 2 experiment)","efflux ratio at 120 min, 10 μM ([1]; Table 3 experiment)","Papp A→B at 120 min, 10 μM [1, 2] [×10⁻⁶ cm/s]","Papp B→A at 120 min, 10 μM [1, 2] [×10⁻⁶ cm/s]","Papp A→B at 120 min, 10 μM [1, 3] [×10⁻⁶ cm/s]","Papp B→A at 120 min, 10 μM [1, 3] [×10⁻⁶ cm/s]","Papp A→B at 120 min, 10 μM (MDR1 (P-gp); [4]) [×10⁻⁶ cm/s]","Papp B→A at 120 min, 10 μM (MDR1 (P-gp); [4]) [×10⁻⁶ cm/s]","efflux ratio at 120 min, 10 μM (MDR1 (P-gp); read-out: Flux ratio (MDCK II‐MDR1) (efflux ratio, ER))","Papp A→B at 120 min, 10 μM (BCRP; [4]) [×10⁻⁶ cm/s]","Papp B→A at 120 min, 10 μM (BCRP; [4]) [×10⁻⁶ cm/s]","efflux ratio at 120 min, 10 μM (BCRP; read-out: Flux ratio (MDCK II‐BCRP) (efflux ratio, ER))",Compound,Papp MDCK II A to B (MDCK II cell monolayer; [5]),Papp MDCK II B to A (MDCK II cell monolayer; [5]),Papp MDCK II A to B (MDCK II cell monolayer; [6]),Papp MDCK II B to A (MDCK II cell monolayer; [6]),"Flux ratio (MDCK II) (efflux ratio, ER) (MDCK II cell monolayer; Papp B to A / Papp A to B, Table 2 experiment)"
0.9,0.8,11.1 ± 0.2,9.9 ± 0.2,11.6 ± 0.1,8.9 ± 0.4,13.3 ± 1.4,11.2 ± 0.2,0.8,1.3 ± 0.1,20.9 ± 0.1,15.7,CC(C)=CCc1cc(/C=C/C(=O)O)ccc1O [drupanin],,,,,
,,,,,,,,,,,,CC(C)=CCc1cc(/C=C/C(=O)O)cc(CC=C(C)C)c1O [artepillin C],13.0 ± 0.8 10^−6 cm/s,10.8 ± 0.1 10^−6 cm/s,14.0 ± 0.7 10^−6 cm/s,11.2 ± 1.2 10^−6 cm/s,0.8
